Laboratory results: PMC6627374, “Effects of the Pentapeptide P33 on Memory and Synaptic Plasticity in APP/PS1 Transgenic Mice: A Novel Mechanism Presenting the Protein Fe65 as a Target” (International Journal of Molecular Sciences, 2019)
Where a SMILES comes first, the peptide text is derived from it.

How the values were obtained:
[1] = tested on: APP/PS1 mice and C57BL/6 wild-type (WT) mice; assay: Morris water maze (MWM), spatial learning and memory; assay type: in vivo, mouse; conditions: for intersection area with vehicle group (bootstrap 2D contours): vehicle vs P33, 90% contours
Description: (§1) For this study, three-month-old male and female WT and APP/PS1 mice (n = 37) were used. Four groups were defined: WT-vehicle (physiological saline) (male n = 4; female n = 6), WT-P33 (male n = 6; female n = 5), APP/PS1-vehicle (male n = 3; female n = 5), and APP/PS1-P33 (male n = 6; female n = 2). Animals were subjected to intraperitoneal (i.p.) injections of P33 (5 mg∙kg^−1) for five days per week, over a course of six months. The mice were kept in groups under constant temperature (23 ± 0.5 °C), lighting (12-h/12-h light/dark cycle, lights on at 7:00 a.m.), and humidity (~50%). Standard mouse chow and tap water were supplied ad libitum. All behavioral experiments were performed in the light period. Handling was done daily at the same time.
The experiment lasted for five days, and was conducted on every occasion in the light period. Mice were tested twice every day when they were allowed to swim until they found the platform. […] Four different starting points were used during the experiment; starting points were changed randomly during the tests. Trajectories of the mice were recorded with a video camera fixed on the ceiling, equipped with the software EthoVision XT8 (Noldus Information Technology, The Netherlands, 2011). The tracking system calculated the time to reach the platform, swimming speed, length of the swimming path (distance), and percentage time spent in each of the four virtual quadrants during the trials.
Behavioral data were analyzed by mixed ANOVA, followed by Fisher’s LSD post hoc tests for multiple comparisons. The classical and modified ANOVA data evaluation methods applied for the raw measurements could detect only some significant effects without explaining their positions. Convenient post hoc analysis methods, like Student’s t-statistics, need a Gaussian distribution of the analysis data. Additionally, only the probability of the false positive decision error can be set up, and the probability of the false negative decision error remains unknown. Therefore, we developed and used nonparametric statistics. The one-response variable data (swimming times) were used to generate a two-variable model: (1) the reciprocal of the slope of the fitted straight line between the swimming time and the days (its negative values close to zero indicate an improvement in the memory and learning functions of the mice from day to day); (2) swimming time data of the last day (closeness to zero indicates an effective learning process). The two variables were combined, and evaluating them together gave more reliable multiple statistical results. […]

Fe65 = assay: Western blot, Fe65 level in brain; assay type: in vivo, mouse; conditions: APP/PS1 mice; 5 mg∙kg^−1 i.p., five days per week, six months; HC and CTX
Description: as §1
Nine-month-old mice (three animals per group) were euthanized via cervical dislocation. […] To quantify the level of Aβ in the mice, we used a sandwich ELISA Kit (Innotest Amyloid-[…]) from Innogenetics (Gent, Belgium), following the instructions of the manufacturer. The absorbance values were measured at 450 nm on a 96-well plate reader (NOVOstar OPTIMA, BMG Labtech, Offenburg, Germany). […]
The results of spine density and immunohistochemistry experiments were calculated with one-way ANOVA followed by Fisher’s LSD post hoc tests. […] Data were analyzed with SPSS (IBM SPSS Statistics 24), and were expressed as the mean ± standard error of the mean (SEM). […]

In the case of `C[C@@H](N)C(=O)N1CCC[C@@H]1C(=O)N[C@H](C)C(=O)N1CCC[C@@H]1C(=O)N[C@H](CCC(=O)O)C(N)=O` [P33] (HELM PEPTIDE1{[dA].[dP].[dA].[dP].[dE].[am]}$$$$V2.0), the “permutation test of swimming times vs randomness (in words)” value ([1]; APP/PS1-P33, 50,000 resamples, 1/m and yend) is reported as “significant improvement, as the randomness of the measurements was drastically decreased”, the “intersection area with vehicle group (bootstrap 2D contours)” value ([1]; APP/PS1 groups, % of total areas of both, 50,000 resamples) is reported as “approximately 2%” and the “latency to find the platform, effect of P33 (in words)” value ([1]; APP/PS1 mice, 5 mg∙kg^−1 i.p., six months, MWM five days) is reported as “seemed to have a positive effect on their learning abilities”. The “intersection area with vehicle group (bootstrap 2D contours)” value ([1]; WT groups, % of total area of P33 treatment (vehicle 32%), 50,000 resamples) was 89% and the “Fe65 level, effect of P33 (in words)” value (Fe65) was “could not be considerably changed by the treatment with P33”.
